From ChEMBL document CHEMBL4376834, “Discovery of 4H-Chromen-4-one Derivatives as a New Class of Selective Rho Kinase (ROCK) Inhibitors, which Showed Potent Activity in ex Vivo Diabetic Retinopathy Models” (J Med Chem, 2019)

Assays:
[1] = biological target: cGMP-dependent protein kinase 1 (Homo sapiens, UniProt Q13976); experiment: Inhibition of recombinant full length human PKG1alpha using RRRLSFAEPG as substrate incubated for 40 mins in presence of [gamma-33P]ATP and 10 uM ATP by radiometric scintillation counting analysis
Chain of cGMP-dependent protein kinase 1 (Q13976 whole entry): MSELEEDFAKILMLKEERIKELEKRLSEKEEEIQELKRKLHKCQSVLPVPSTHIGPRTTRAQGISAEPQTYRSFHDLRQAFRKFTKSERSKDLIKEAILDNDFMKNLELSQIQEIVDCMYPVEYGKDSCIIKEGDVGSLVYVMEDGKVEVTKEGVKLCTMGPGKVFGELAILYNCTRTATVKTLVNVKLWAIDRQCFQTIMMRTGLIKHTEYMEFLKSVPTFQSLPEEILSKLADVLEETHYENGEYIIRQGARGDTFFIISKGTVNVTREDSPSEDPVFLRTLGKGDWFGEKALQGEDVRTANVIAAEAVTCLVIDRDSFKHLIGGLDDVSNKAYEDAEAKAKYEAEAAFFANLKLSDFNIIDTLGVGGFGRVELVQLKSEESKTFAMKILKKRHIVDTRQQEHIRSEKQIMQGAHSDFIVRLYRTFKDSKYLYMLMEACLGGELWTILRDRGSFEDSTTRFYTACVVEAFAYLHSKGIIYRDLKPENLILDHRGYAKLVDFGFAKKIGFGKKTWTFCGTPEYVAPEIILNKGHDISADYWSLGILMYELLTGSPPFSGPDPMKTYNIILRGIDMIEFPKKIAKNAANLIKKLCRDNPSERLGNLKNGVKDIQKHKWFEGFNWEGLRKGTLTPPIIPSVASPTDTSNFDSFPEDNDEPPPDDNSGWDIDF

[2] = biological target: Tyrosine-protein kinase ABL1 (Homo sapiens, UniProt P00519, M351T); experiment: Inhibition of human recombinant ABL1 M351T mutant (27 to end residues) using EAIYAAPFAKKK as substrate incubated for 40 mins in presence of [gamma-33P]ATP by scintillation counting based radiometry assay
[3] = biological target: Calcium/calmodulin-dependent protein kinase type IV (Homo sapiens, UniProt Q16566); experiment: Inhibition of recombinant full length human CaMK4 using calmodulin as substrate incubated for 40 mins in presence of [gamma-33ATP] by radiometric scintillation counting analysis
Chain of Calcium/calmodulin-dependent protein kinase type IV (Q16566 whole entry): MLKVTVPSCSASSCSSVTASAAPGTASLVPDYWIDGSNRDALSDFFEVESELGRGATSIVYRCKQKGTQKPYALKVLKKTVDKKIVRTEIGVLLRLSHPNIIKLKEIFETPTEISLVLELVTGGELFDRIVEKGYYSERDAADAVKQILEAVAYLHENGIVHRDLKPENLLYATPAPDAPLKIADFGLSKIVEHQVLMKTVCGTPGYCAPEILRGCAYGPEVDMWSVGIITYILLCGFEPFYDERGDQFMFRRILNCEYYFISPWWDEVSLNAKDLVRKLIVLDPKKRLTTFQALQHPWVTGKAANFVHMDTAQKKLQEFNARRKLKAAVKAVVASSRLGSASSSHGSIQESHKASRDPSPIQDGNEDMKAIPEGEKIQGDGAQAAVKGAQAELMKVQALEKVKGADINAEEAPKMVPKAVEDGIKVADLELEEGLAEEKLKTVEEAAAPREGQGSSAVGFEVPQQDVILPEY

[4] = biological target: Dual specificity tyrosine-phosphorylation-regulated kinase 3 (Homo sapiens, UniProt O43781); experiment: Inhibition of recombinant full length human DYRK3 using RRRFRPASPLRGPP as substrate after 40 mins in presence of [gamma-33ATP] by radiometric scintillation counting analysis
[5] = biological target: Protein kinase C zeta type (Homo sapiens, UniProt Q05513); experiment: Inhibition of recombinant human PKCzeta (2 to end residues) using ERMRPRKRQGSVRR as substrate incubated for 40 mins in presence of [gamma33P]ATP by radiometric scintillation counting analysis
[6] = biological target: Protein kinase C alpha type (Homo sapiens, UniProt P17252); experiment: Inhibition of recombinant human full length PKCalpha using histone as substrate incubated for 40 mins in presence of [gamma33P]ATP by radiometric scintillation counting analysis
[7] = biological target: Phosphorylase b kinase gamma catalytic chain, liver/testis isoform (Homo sapiens, UniProt P15735, F290L); experiment: Inhibition of recombinant human PhKgamma2 F290L (1 to 301 residues) usingKKLNRTLSFAEPG as substrate incubated for 40 mins in presence of [gamma33P]ATP by radiometric scintillation counting analysis
Chain of Phosphorylase b kinase gamma catalytic chain, liver/testis isoform (P15735 whole entry F290L, the tested form may be a part, canonical isoform): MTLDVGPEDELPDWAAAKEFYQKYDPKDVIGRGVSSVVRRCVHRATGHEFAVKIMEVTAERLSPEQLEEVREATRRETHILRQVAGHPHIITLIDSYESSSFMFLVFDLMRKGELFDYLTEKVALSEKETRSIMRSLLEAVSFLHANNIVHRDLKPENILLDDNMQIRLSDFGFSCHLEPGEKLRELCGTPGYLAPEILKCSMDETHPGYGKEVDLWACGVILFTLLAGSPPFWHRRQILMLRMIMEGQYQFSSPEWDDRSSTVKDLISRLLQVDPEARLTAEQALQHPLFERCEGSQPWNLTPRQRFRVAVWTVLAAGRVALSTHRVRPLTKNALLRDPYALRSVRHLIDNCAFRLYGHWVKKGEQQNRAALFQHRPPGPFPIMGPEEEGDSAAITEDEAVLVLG

[8] = biological target: 3-phosphoinositide-dependent protein kinase 1 (Homo sapiens, UniProt O15530); experiment: Inhibition of recombinant human PDK1 (52 to end residues) using KTFCGTPEYLAPE as substrate incubated for 40 mins in presence of [gamma33P]ATP by radiometric scintillation counting analysis
[9] = biological target: Serine/threonine-protein kinase PAK 3 (Homo sapiens, UniProt O75914); experiment: Inhibition of recombinant full-length human PAK3 using RRRLSFAEPG as substrate measured after 40 mins in presence of [gamma33P]ATP by radiometric scintillation counting analysis
[10] = biological target: Epidermal growth factor receptor (Homo sapiens, UniProt P00533, L858R/T790M); experiment: Inhibition of recombinant human EGFR T790M/L858R double mutant (696 to end residues) using poly(Glu, Tyr) 4:1 as substrate after 40 mins in presence of [gamma-33ATP] by radiometric scintillation counting analysis
Ephrin type-A receptor 5 = Ephrin type-A receptor 5 (Homo sapiens, UniProt P54756); experiment: Inhibition of recombinant human EphA5 (655 to 956 residues) using poly(Glu, Tyr) 4:1 as substrate measured after 40 mins in presence of [gamma33ATP] by radiometric scintillation counting analysis
[11] = biological target: Fibroblast growth factor receptor 4 (Homo sapiens, UniProt P22455); experiment: Inhibition of recombinant human FGFR4 (442 to 755 residues) using poly(Glu, Tyr) 4:1 as substrate after 40 mins in presence of [gamma-33ATP] by radiometric scintillation counting analysis
Rhodopsin kinase GRK7 = Rhodopsin kinase GRK7 (Homo sapiens, UniProt Q8WTQ7); experiment: Inhibition of recombinant full length human GRK7 using casein as substrate after 40 mins in presence of [gamma-33ATP] by radiometric scintillation counting analysis
[12] = biological target: Tyrosine-protein kinase HCK (Homo sapiens, UniProt P08631); experiment: Inhibition of human HCK recombinant (230 to 497 residues) using […] as substrate after 40 mins by [gamma-33ATP] radiometric assay
[13] = biological target: Inhibitor of nuclear factor kappa-B kinase subunit beta (Homo sapiens, UniProt O14920); experiment: Inhibition of recombinant full length human IKKbeta using peptide substrate after 40 mins by [gamma-33ATP] by radiometric scintillation counting analysis
[14] = biological target: Tyrosine-protein kinase Lck (Homo sapiens, UniProt P06239); experiment: Inhibition of recombinant full length activated human LCK using […] as substrate after 40 mins in presence of [gamma-33ATP] by radiometric scintillation counting analysis
[15] = biological target: Mitogen-activated protein kinase kinase kinase kinase 5 (Homo sapiens, UniProt Q9Y4K4); experiment: Inhibition of recombinant full length human MAP4K5 using myelin basic protein as substrate incubated for 40 mins in presence of [gamma-33ATP by radiometric scintillation counting analysis
[16] = biological target: Mitogen-activated protein kinase kinase kinase 3 (Homo sapiens, UniProt Q99759); experiment: Inhibition of recombinant full length human MEKK3 using MBP as substrate incubated for 120 mins in presence of [gamma-33ATP by radiometric scintillation counting analysis
Chain of Mitogen-activated protein kinase kinase kinase 3 (Q99759 whole entry): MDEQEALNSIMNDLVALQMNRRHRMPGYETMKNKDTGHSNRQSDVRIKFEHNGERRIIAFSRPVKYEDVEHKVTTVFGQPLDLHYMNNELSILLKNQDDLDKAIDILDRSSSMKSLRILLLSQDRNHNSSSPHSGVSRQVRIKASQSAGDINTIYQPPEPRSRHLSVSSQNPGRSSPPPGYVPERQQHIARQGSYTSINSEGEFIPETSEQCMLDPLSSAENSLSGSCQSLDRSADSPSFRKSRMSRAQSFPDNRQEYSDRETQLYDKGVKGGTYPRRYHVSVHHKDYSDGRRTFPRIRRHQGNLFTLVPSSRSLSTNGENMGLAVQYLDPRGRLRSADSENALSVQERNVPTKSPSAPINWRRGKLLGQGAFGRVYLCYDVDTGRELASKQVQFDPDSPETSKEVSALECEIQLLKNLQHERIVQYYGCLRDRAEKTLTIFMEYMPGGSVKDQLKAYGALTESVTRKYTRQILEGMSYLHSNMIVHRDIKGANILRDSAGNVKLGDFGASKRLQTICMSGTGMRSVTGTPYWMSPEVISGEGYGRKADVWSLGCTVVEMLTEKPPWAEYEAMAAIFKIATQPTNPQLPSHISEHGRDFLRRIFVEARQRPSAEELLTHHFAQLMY

[17] = biological target: Proto-oncogene tyrosine-protein kinase receptor Ret (Homo sapiens, UniProt P07949); experiment: Inhibition of recombinant human Ret (658 to end residues) using KKKSPGEYVNIEF as substrate incubated for 40 mins in presence of [gamma33P]ATP by radiometric scintillation counting analysis
[18] = biological target: Proto-oncogene tyrosine-protein kinase receptor Ret (Homo sapiens, UniProt P07949, V804M); experiment: Inhibition of recombinant human Ret V804M mutant (658 to end residues) using KKKVSRSGLYRSP as substrate incubated for 40 mins in presence of [gamma33P]ATP by radiometric scintillation counting analysis
Chain of Proto-oncogene tyrosine-protein kinase receptor Ret (Homo sapiens, UniProt P07949, V804M) (P07949 29-1114 V804M limits assumed): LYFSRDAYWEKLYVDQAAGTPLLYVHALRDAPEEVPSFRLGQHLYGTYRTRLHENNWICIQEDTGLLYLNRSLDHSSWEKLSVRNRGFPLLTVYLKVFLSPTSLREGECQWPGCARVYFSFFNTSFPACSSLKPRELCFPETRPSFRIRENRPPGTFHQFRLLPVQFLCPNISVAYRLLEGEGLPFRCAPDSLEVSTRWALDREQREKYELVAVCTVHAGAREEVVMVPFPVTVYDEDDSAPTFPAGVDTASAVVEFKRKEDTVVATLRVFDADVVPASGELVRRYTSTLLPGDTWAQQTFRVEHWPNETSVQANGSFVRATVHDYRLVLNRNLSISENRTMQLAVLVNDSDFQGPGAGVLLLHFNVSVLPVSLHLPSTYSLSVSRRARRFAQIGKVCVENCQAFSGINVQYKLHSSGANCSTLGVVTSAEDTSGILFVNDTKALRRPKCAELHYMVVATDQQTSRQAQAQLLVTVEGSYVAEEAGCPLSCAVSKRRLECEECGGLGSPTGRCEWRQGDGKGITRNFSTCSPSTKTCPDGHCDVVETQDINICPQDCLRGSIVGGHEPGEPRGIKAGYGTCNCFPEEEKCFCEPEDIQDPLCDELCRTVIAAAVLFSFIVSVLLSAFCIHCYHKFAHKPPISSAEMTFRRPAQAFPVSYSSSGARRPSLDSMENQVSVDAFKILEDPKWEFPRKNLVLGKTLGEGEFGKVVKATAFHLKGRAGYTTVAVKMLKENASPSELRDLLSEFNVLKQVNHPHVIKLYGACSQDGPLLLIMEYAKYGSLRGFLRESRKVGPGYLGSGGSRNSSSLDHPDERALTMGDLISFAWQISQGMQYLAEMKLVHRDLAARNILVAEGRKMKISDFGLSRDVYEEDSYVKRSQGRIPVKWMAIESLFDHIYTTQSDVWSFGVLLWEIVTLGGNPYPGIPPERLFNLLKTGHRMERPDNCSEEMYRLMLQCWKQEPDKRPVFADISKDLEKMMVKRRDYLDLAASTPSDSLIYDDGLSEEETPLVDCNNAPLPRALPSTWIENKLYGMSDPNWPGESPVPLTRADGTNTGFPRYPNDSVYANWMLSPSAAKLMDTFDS

[19] = biological target: Serine/threonine-protein kinase SIK2 (Homo sapiens, UniProt Q9H0K1); experiment: Inhibition of recombinant human SIK2 (1 to 276 residues) using KKKVSRSGLYRSP as substrate incubated for 40 mins in presence of [gamma33P]ATP by radiometric scintillation counting analysis
TGF-beta receptor type-2 = TGF-beta receptor type-2 (Homo sapiens, UniProt P37173); experiment: Inhibition of recombinant human TGFBR2 (188 to end residues) using MBP as substrate incubated for 120 mins in presence of [gamma33P]ATP by radiometric scintillation counting analysis
[20] = biological target: Testis-specific serine/threonine-protein kinase 2 (Homo sapiens, UniProt Q96PF2); experiment: Inhibition of recombinant full-length human TSSK2 using KKKVSRSGLYRSP as substrate incubated for 40 mins in presence of [gamma33P]ATP by radiometric scintillation counting analysis
[21] = biological target: Serine/threonine-protein kinase WNK1 (Homo sapiens, UniProt Q9H4A3); experiment: Inhibition of recombinant human WNK1 (1 to 491 residues) using myelin basic protein as substrate incubated for 40 mins in presence of [gamma33P]ATP by radiometric scintillation counting analysis
[22] = biological target: Serine/threonine-protein kinase WNK3 (Homo sapiens, UniProt Q9BYP7); experiment: Inhibition of recombinant human WNK3 (1 to 434 residues) using myelin basic protein as substrate incubated for 40 mins in presence of [gamma33P]ATP by radiometric scintillation counting analysis
Chain of Serine/threonine-protein kinase WNK3 (Q9BYP7 whole entry, the tested form may be a part): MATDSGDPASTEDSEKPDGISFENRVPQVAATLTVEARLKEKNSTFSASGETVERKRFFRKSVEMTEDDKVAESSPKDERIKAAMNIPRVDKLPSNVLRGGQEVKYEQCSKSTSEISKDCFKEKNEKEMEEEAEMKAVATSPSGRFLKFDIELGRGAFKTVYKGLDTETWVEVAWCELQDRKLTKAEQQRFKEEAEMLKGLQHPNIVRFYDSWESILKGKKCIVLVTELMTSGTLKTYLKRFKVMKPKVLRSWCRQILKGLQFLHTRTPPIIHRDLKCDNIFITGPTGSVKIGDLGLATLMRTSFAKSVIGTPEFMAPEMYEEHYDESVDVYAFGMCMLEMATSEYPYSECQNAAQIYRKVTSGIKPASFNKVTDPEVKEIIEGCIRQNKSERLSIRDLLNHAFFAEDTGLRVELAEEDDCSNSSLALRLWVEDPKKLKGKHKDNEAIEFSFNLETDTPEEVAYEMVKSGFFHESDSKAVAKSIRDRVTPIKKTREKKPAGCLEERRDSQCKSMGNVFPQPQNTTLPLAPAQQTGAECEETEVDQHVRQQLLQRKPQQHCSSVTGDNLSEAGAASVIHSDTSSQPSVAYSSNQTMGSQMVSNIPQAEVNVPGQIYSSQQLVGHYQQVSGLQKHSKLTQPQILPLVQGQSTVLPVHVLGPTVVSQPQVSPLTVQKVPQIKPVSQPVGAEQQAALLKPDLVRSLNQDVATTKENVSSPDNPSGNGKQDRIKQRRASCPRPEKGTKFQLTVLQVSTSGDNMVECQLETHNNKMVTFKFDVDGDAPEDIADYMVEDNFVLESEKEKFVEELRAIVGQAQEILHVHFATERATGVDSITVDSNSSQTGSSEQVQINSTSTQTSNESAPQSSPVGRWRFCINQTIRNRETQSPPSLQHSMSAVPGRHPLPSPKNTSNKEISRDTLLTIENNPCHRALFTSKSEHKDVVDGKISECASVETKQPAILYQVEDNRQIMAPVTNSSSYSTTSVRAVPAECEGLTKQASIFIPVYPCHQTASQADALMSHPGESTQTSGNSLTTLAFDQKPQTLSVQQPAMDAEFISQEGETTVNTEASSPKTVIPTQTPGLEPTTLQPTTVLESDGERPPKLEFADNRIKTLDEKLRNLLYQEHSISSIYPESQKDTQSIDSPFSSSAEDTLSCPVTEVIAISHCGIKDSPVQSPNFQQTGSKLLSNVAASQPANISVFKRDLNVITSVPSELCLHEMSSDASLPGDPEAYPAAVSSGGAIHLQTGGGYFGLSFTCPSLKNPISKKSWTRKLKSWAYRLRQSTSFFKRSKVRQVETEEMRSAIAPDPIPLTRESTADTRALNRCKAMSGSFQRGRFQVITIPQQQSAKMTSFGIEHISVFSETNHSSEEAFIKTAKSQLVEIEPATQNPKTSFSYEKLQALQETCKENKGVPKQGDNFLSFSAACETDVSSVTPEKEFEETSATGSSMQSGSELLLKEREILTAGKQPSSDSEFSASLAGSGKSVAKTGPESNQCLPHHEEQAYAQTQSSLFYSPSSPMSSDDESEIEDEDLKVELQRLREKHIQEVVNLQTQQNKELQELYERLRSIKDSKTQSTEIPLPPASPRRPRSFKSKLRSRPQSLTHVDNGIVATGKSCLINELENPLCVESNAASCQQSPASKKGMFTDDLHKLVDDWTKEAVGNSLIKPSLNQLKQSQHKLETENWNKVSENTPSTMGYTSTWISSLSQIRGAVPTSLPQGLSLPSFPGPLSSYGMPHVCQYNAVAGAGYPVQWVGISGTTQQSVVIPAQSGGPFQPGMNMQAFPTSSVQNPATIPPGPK

Measured: IC50

CN(C)c1ccc(C(=O)Nc2cccc(NC(=O)COc3ccc4c(=O)ccoc4c3)c2)cc1
0.517 µM: [1]
> 10 µM: all other assays above
